Reference: patent US20080262017A1, “Sugar-Free Storage-Stable Antihistaminic Syrups” (priority 2006, published 2008)
Read-outs that look alike come from different tables or passages of the source.

How the values were obtained:
[1] = Desloratadine stability (assay, regression analysis); type: physicochemical; conditions: Example 1 formulation, regression analysis of data through 18 months
Description: Data obtained through 18 months at 25° C./60% RH and 30° C./65% RH were evaluated by regression analysis in order to determine a suitable shelf life (see FIGS. 2A and 2B).

[2] = cited from earlier work
[3] = Example 1 formulation; throughout the 18 month stability interval
Description: (§1) Three batches of the exemplary formulation detailed in Example 1 were manufactured (referred to herein as Batches A, B, and C) and packaged in two different sizes of amber glass bottles (120 mL and 15 mL).

Sodium benzoate assay = type: physicochemical; conditions: Example 1 formulation; throughout the 18 month stability interval
Description: as §1

For `Clc1ccc2c(c1)CCc1cccnc1C2=C1CCNCC1` [Desloratadine, 8-chloro-6,11-dihydro-11-(4-piperidinylidene)-5H-benzo[5,6]cyclohepta[1,2-b]pyridine], the “predicted desloratadine assay value over a 24 month shelf life” value ([1]; stored at 25° C./60% RH) is given as 100.9%, the “predicted desloratadine assay value over a 24 month shelf life” value ([1]; stored at 30° C./65% RH) is given as 98.9% and the solubility ([2]; in ethanol) is given as “very soluble”. The solubility ([2]; in propylene glycol) was “very soluble” and the solubility ([2]; in water) was “slightly soluble”.
For `O=C([O-])CN(CCN(CC(=O)[O-])CC(=O)O)CC(=O)O.[Na+].[Na+]` [EDTA, Edetate Disodium], the EDTA assay trend [3] was “no degradation trend”.
With `O=C([O-])c1ccccc1.[Na+]` [sodium benzoate] the “sodium benzoate assay trend” value (Sodium benzoate assay) was “no degradation trend”.
